Ends that are not written are not given here.

The subject of one data set is ACC. Kind of data set: Western blot for phosphorylated ACC in L6 myotube lysates. The data set is classed as cell-based. The settings on record: L6 myotubes, 60 minutes; rHDL 700 μg/ml apoA-I; phenformin 0.4 mmol/l; FIG. 3c,d. The method, then:
(§1) Prior to stimulation or treatment cultured myoblast cells were serum starved for 4 hours in serum-free α-MEM and all subsequent treatments, including insulin or phenformin as positive controls (Sigma), were performed in serum free a-MEM. After treatments, cells were washed with ice cold PBS buffer and lysed on ice using a non-denaturing lysis buffer (1% Triton X-100, 50 mmol/l Tris, 150 mmol/l NaCl, pH 8.0) containing protease and phosphatase inhibitors (Roche). Lysates were centrifuged at 16,000×g, 20 minutes at 4° C. and BCA protein assay (Pierce) was performed on supernatants. Equal protein amounts were separated by SDS-PAGE and transferred to nitrocellulose membranes. pAMPK, AMPK, pACC, pAkt, Akt and tubulin were used for immunodetection with IRDye 800CW and 680RD secondary antibodies (LI-COR). Blots were imaged using the Odyssey Fc system and quantified using Image studio v2.0 software.
To dissect the effect of discoidal rHDL on a non-insulin dependent signaling pathway, we conducted western blotting using lysates from L6 myotubes incubated with rHDL. […] Phenformin was used as a positive control, inducing a 1.98±0.33-fold (p=≦0.05) and 2.7±0.74-fold (p=≦0.05) elevation of phosphorylated AMPK and ACC, respectively, at a concentration of 0.4 mmol/l. […] Representative immunoblots of those quantified for FIGS. 3a, c and f are given in FIGS. 3b, d and e, respectively.

Another data set deals with AMPK. Kind of data set: Western blot for phosphorylated AMPK in L6 myotube lysates. The data set is classed as cell-based. The settings on record: L6 myotubes, 60 minutes; rHDL 700 μg/ml apoA-I; phenformin 0.4 mmol/l; FIG. 3a,b. The method, then: as §1
To dissect the effect of discoidal rHDL on a non-insulin dependent signaling pathway, we conducted western blotting using lysates from L6 myotubes incubated with rHDL. […] Phenformin was used as a positive control, inducing a 1.98±0.33-fold (p=≦0.05) and 2.7±0.74-fold (p=≦0.05) elevation of phosphorylated AMPK and ACC, respectively, at a concentration of 0.4 mmol/l. […] Representative immunoblots of those quantified for FIGS. 3a, c and f are given in FIGS. 3b, d and e, respectively. […]

Data set [1] deals with insulin resistant C57Bl/6 mice. The data set can be described thus: Glucose tolerance test in high-fat diet fed (HFD) mice. Particulars: glucose load 3 hours later. The data set is classed as in vivo, mouse. The method, then:
Male C57BL/6 mice (Taconic) were used at 9-12 weeks of age. Animals were on a 12 hour light cycle with non-restricted food and water. The HFD animals were fed an HFD (D12492, 60% fat content; Research Diets) for 2 weeks. All animal procedures were approved by the Malmo/Lund Committee for Animal Experiment Ethics, Lund, Sweden. HFD mice fasted overnight (12 hours) were injected intra peritoneal (i.p.) with apoA-I peptides as listed above ([…] in PBS pH 7.4 for the 54-mer fragment and 6-7 mg/kg for other fragments in PBS, pH 7.4; control animals received NaCl) and this was followed by collection of serum samples at the indicated times. Glucose (50 mg/mouse) was injected i.p. 3 hours after treatments, followed by collection of serum samples at the indicated times. Blood glucose levels were measured (OnetouchUltra2; Lifescan), and insulin levels were assayed in serum using ELISA (Mercodia).

A short description of data set [2]: Circular dichroism spectroscopy, alpha-helical content. The data set is classed as physicochemical. The settings on record: 0.2 mg/ml in PBS pH 7.4, 25° C. The method, then:
CD measurements were performed on a Jasco J-810 spectropolarimeter equipped with a Jasco CDF-4265 Peltier set to 25° C. ApoA-I (full-length and the 190-234 polypeptide fragment) was diluted to 0.2 mg/ml in PBS (final concentration was 25 mmol/l phosphate, 25 mmol/l NaCl, pH 7.4), placed in a 0.1 mm quartz cuvette and, after extensive purging with nitrogen, scanned in the region 200 to 260 nm (scan speed was 20 nm/min). Averages of five scans were baseline-subtracted (PBS; 25 mmol/l phosphate, 25 mmol/l NaCl) and the alpha-helical content was calculated from the molar ellipticity at 222 nm as previously described (Petrlova et al. (2012) J Lipid Res 53: 390-398).

The conditions of data set [3]: apo-state versus discoidal HDL; Saito et al. (2004); cited from earlier work.
A further data set concerns L6 myotubes. Kind of data set: Glucose uptake in L6 myotubes (2-[3H]-deoxy-D-glucose). The format is cell-based. Particulars: 2 h serum starved, 50 μg/ml (1.6 μmol/l) apoA-I or 100 nmol/l insulin, 1 hour, FIG. 1b. The method, then:
L6 myoblasts (ATCC #CRL-1458) were grown in α-MEM (Invitrogen) supplemented with 10% FBS (Sigma) and 1% antibiotic/antimycotic (Penicillin, streptomycin, amphotericin B; Invitrogen). Differentiation to myotubes was achieved by switching from growth media to 2% FBS a-MEM for 6-7 or 6-12 days. Cells were maintained at 37° C. and 5% CO2.
Prior to stimulation (or treatment) cells were starved for 2 hours in serum-free a-MEM and all subsequent treatments, which were performed in triplicate and included cytochalasin B (Sigma) as a measure of cell associated non-specific radioactivity, were performed in uptake buffer (140 mmol/l NaCl, 20 mmol/l HEPES, 5 mmol/l KCl, 2.5 mmol/l MgSO4, 1 mmol/l CaCl2, pH 7.4). After stimulation, treatments were replaced with 10 μmol/l 2-deoxy-D-glucose (Sigma), 10 μmol/l 2-[3H]-deoxy-D-glucose (Perkin Elmer) in uptake buffer for 15 mins at room temperature. Cells were then washed twice with ice cold PBS and lysed with 1 mol/l NaOH on ice. Lysates were collected and radioactivity quantified by scintillation counting.
In order to investigate the effect of discodial HDL (rHDL) on GLUT4 translocation and glucose uptake, we produced recombinant human apoA-I and reconstituted HDL needed for cell incubations. L6 myotubes were incubated with 50 μg/ml (1.6 μmol/l) apoA-I for 1 hour followed by a glucose uptake assay as described above. […] Next, L6 myotubes were treated by incubation with 50 μg/ml discodial rHDL (expressed as total concentration of apoA-I in rHDL, given 2 apoA-I molecules per particle) for 1 hour. […] This experiment was thereafter repeated in more controlled manner including cell number and quality (cells were similarly treated during differentiation from myoblasts to multinuclear myotubes, with respect to the time between splitting cells, cell density, passage of cells used.) (FIG. 7c).
The relative effect of specific regions of apoA-I to increase glucose uptake was investigated using truncated protein fragments corresponding to residues 1-189 (N-terminal/central domain), 44-189 (central domain), 44-243 (central/C-terminal domain) and 190-243 (C-terminal domain) of full-length apoA-I (FIG. 4a). The treatments with incubation of truncated protein fragments were performed as described above for treatment of L6 myotubes with full-length apoA-I and followed by a glucose uptake assay as described above.
To test for the contribution of the constituent phospholipid to rHDL-induced glucose uptake in L6 myotubes, rHDL made with DMPC was also produced and compared to 100 nm DMPC vesicles containing no apoA-I protein. Stable 100 nm diameter vesicles can be synthesized with DMPC in the absence of apoA-I and was therefore used as a phospholipid control. The effect on the glucose uptake was tested as described above. […] To also test for the contribution of the constituent POPC phospholipid to rHDL-induced glucose uptake, rHDL made with POPC was compared with 100 nm POPC vesicles containing no apoA-I protein.

Data set [4] concerns the molecule itself. Kind of data set: blue native PAGE, coomassie stained; self-association (homo-oligomer) in solution and after 1 hour with L6 myotubes. An excerpt: It is known that the 190-234 polypeptide fragment can form discoidal particles by solubilisation of lipid in solution (Vedhachalan et al. (2010) J Biol Chem 285:31965-31973), which can be visualised as oligomers on native PAGE. […] Lipid-free apoA-I and rHDL were included on the gel as a full length protein monomer and dimer reference.

The mark [5] stands for this setting: 18-mer peptides, single injection 7 mg/kg, FIG. 12.
[6] abbreviates: 23- or 27-mer peptides, single injection 6-7 mg/kg, FIG. 11.

As for `[H]/N=C(/N)N/C(=N/[H])NCCc1ccccc1` [Phenformin, phenformin, reference compound], in the data set on ACC, the “levels of phosphorylated ACC” value worked out at 2.7±0.74 fold. In addition, in the data set on AMPK, the “levels of phosphorylated AMPK” value was 1.98±0.33 fold.
“SEQ ID NO: 2: fragment consisting of amino acids 190-207 of human ApoA-I (AEYHAKATEHLSTLSEKA; listed as Homo Sapiens)”: in data set [1] (setting [5]), the “glucose tolerance capacity / capacity to clear blood glucose (in words)” value (shortened to “glucose tolerance capacity / capacity”) was “showed particular increased capacity to clear blood glucose”.
As to “SEQ ID NO: 4: fragment consisting of amino acids 226-243 of human ApoA-I (KVSFLSALEEYTKKLNTQ; listed as Homo Sapiens)”, in data set [1] (setting [5]), the “glucose tolerance capacity / capacity” value was “showed particular increased capacity to clear blood glucose”.
In the case of “SEQ ID NO: 8: fragment consisting of amino acids 217-243 of human ApoA-I (GLLPVLESFKVSFLSALEEYTKKLNTQ; listed as Homo Sapiens)”, the “glucose tolerance capacity / capacity” value in data set [1] (setting [6]) is “showed particular increased capacity to clear blood glucose”.
In the case of “SEQ ID NO: 518: fragment consisting of amino acids 204-226 of human ApoA-I (SEKAKPALEDLRQGLLPVLESFK; listed as Homo Sapiens)”, the “glucose tolerance capacity / capacity” value in data set [1] (setting [6]) is recorded as “showed particular increased capacity to clear blood glucose”.
Turning to “apoA-I: recombinant full-length human apolipoprotein A-I, amino acids 1-243, lipid-free”, in data set [2], the “helical content from molar ellipticity at 222 nm” value was determined as 43%. For the same molecule, the alpha-helical secondary structure result in data set [3] is “about 44%”. The increased glucose uptake in the data set with L6 myotubes is reported as 1.3 fold.

B1: 190-243 polypeptide fragment of human apoA-I (SEQ ID NO: 1) (peptide, not shown: small tags and cut ends)
chain: AEYHAKATEHLSTLSEKAKPALEDLRQGLLPVLESFKVSFLSALEEYTKKLNTQ
modifications: also: N-terminal hexa-His tag (letters not given here)
notes: Recombinant, expressed in E. coli
B1: the binding result in data set [4] is given as “binds”.
